Experimental data: patent EP0187355A1, “Process for preparing beta-lactam antibiotics” (E.R. Squibb & Sons, Inc., priority 1981, dated 1982)
Structures can show the parent of a compound that is named as a salt.

Legend:
Assay in all cases: MIC, agar dilution
Format in all cases: cell-based
[1] = system: Acinetobacter calcoaceticus, 8333; conditions: Acinetobacter calcoaceticus, 8333, 18 h, K-10 agar, 10^4 CFU, 37°C, read-out: M.I.C.
Procedure, shortened: (§1)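 MIC, the lowest compound concentration preventing visible growth, is read after plates incubate 18 h at 37°C. Plates hold K-10 agar with twofold drug dilutions spanning 100 to 0.05 µg/ml, each spot-inoculated with 10^4 CFU.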

[2] = system: Citrobacter freundii, 9518; conditions: K-10 agar, 10^4 CFU, 37°C, 18 hours, read-out: M.I.C.
Procedure, shortened: as §1

[3] = system: Enterobacter aerogenes, 10078; conditions: Klebsiella aerogenes, 10078, 18 h, Enterobacter aerogenes, 10078; K-10 agar, 10^4 CFU, 37°C, 18 hours; read-out: M.I.C.
Procedure, shortened: as §1

Escherichia coli, 10857 = conditions: Escherichia coli, 10857, 18 h, K-10 agar, 10^4 CFU, 37°C
Procedure, shortened: as §1

Escherichia coli, 10896 = conditions: K-10 agar, 10^4 CFU, 37°C, 18 hours
Procedure, shortened: as §1

Escherichia coli, 10909 = conditions: K-10 agar, 10^4 CFU, 37°C, 18 hours
Procedure, shortened: as §1

Escherichia coli, 8294 = conditions: Escherichia coli, 8294, 18 h, K-10 agar, 10^4 CFU, 37°C
Procedure, shortened: as §1

[4] = system: Klebsiella aerogenes, 10440; conditions: K-10 agar, 10^4 CFU, 37°C, 18 hours, read-out: M.I.C.
Procedure, shortened: as §1

[5] = system: Klebsiella pneumoniae, 9527; conditions: Klebsiella pneumoniae, 9527, 18 h, K-10 agar, 10^4 CFU, 37°C, read-out: M.I.C.
Procedure, shortened: as §1

Proteus mirabilis, 3855 = conditions: Proteus mirabilis, 3855, 18 h, K-10 agar, 10^4 CFU, 37°C, read-out: M.I.C.
Procedure, shortened: as §1

Proteus rettgeri, 8479 = conditions: Providencia rettgeri, K-10 agar, 10^4 CFU, 37°C, 18 hours, read-out: M.I.C.
Procedure, shortened: as §1

Proteus vulgaris, 9416 = conditions: K-10 agar, 10^4 CFU, 37°C, 18 hours, read-out: M.I.C.
Procedure, shortened: as §1

[6] = system: Pseudomonas aeruginosa, 8329; conditions: K-10 agar, 10^4 CFU, 37°C, 18 hours, read-out: M.I.C.
Procedure, shortened: as §1

[7] = system: Pseudomonas aeruginosa, 9545; conditions: Pseudomonas aeruginosa, 9545, 18 h, K-10 agar, 10^4 CFU, 37°C, read-out: M.I.C.
Procedure, shortened: as §1

Salmonella typhosa, 1195 = conditions: Salmonella enterica, TYPHOSA, 18 h, K-10 agar, 10^4 CFU, 37°C
Procedure, shortened: as §1

[8] = system: Serratia marcescens, 9783; conditions: Serratia marcescens, 9783, 18 h, K-10 agar, 10^4 CFU, 37°C, read-out: M.I.C.
Procedure, shortened: as §1

Shigella sonnei, 8449 = conditions: Shigella sonnei, 8449, 18 h, K-10 agar, 10^4 CFU, 37°C
Procedure, shortened: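 Overnight broth cultures (37°C, 18–20 h) were diluted 1:100 and spotted onto K-10 agar plates containing twofold compound dilutions (final 100 to 0.05 µg/ml), giving 10^4 CFU per spot. After 18 h at 37°C, MIC was read as the lowest concentration inhibiting growth.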

[9] = system: Staphylococcus aureus, 10165; conditions: Staphylococcus aureus, 10165; K-10 agar, 10^4 CFU, 37°C, 18 hours; read-out: M.I.C.
Procedure, shortened: as §1

[10] = system: Staphylococcus aureus, 1276; conditions: Staphylococcus aureus, 1276; K-10 agar, 10^4 CFU, 37°C, 18 hours; read-out: M.I.C.
Procedure, shortened: as §1

[11] = system: Staphylococcus aureus, 2399; conditions: Staphylococcus aureus, 2399, 18 h, Staphylococcus aureus, 2399; K-10 agar, 10^4 CFU, 37°C, 18 hours; read-out: M.I.C.
Procedure, shortened: as §1

[12] = system: Staphylococcus aureus, 2400; conditions: Staphylococcus aureus, 2400; K-10 agar, 10^4 CFU, 37°C, 18 hours; read-out: M.I.C.
Procedure, shortened: as §1

[13] = system: Streptococcus faecalis, 9011; conditions: Enterococcus faecalis; Streptococcus faecalis, 9011; K-10 agar, 10^4 CFU, 37°C, 18 hours; read-out: M.I.C.
Procedure, shortened: as §1

[14] = system: Enterobacter cloacae, 8236; conditions: Enterobacter cloacae, 8236, 18 h, K-10 agar, 10^4 CFU, 37°C
Procedure, shortened: (§2)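 Broth cultures grown 18-20 h at 37°C, diluted 1:100 in K-10 broth, applied by multipoint inoculator at 10^4 CFU onto K-10 agar holding twofold compound dilutions, 100 to 0.05 µg/ml final. MIC taken as lowest concentration inhibiting growth.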

Micrococcus luteus, 2495 = conditions: Micrococcus luteus, 2495, 18 h, K-10 agar, 10^4 CFU, 37°C, read-out: M.I.C.
Procedure, shortened: as §2

[15] = system: Streptococcus agalactiae, 9287; conditions: Streptococcus agalactiae, 9287, 18 h, K-10 agar, 10^4 CFU, 37°C, read-out: M.I.C.
Procedure, shortened: as §2

For `C[C@H]1[C@H](NC(=O)/C(=N\OC(C)(C)C(=O)OCc2ccc([N+](=O)[O-])cc2)c2csc(N)n2)C(=O)N1S(=O)(=O)O` [Example 15, [3S-[3α(Z),4β]]-3-[[(2-Amino-4-thiazolyl)[[1,1-dimethyl-2-[(4-nitrophenyl)methoxy]-2-oxoethoxy]-imino]acetyl]amino]-4-methyl-2-oxo-1-azetidinesulfonic acid, potassium salt], the MIC [1] was > 100 µg/mL, the MIC [2] was 25 µg/mL and the MIC [3] was 100 µg/mL. For the same molecule, the MIC (Escherichia coli, 10857) was 0.4 µg/mL, the MIC (Escherichia coli, 10896) was 6.3 µg/mL and the MIC (Escherichia coli, 10909) was 6.3 µg/mL. The MIC (Escherichia coli, 8294) was 50 µg/mL, the MIC [4] was > 100 µg/mL and the MIC [5] was 12.5 µg/mL. It also gave an MIC (Proteus mirabilis, 3855) of 6.3 µg/mL, an MIC (Proteus rettgeri, 8479) of 1.6 µg/mL and an MIC (Proteus vulgaris, 9416) of 1.6 µg/mL. The MIC [6] was > 100 µg/mL, the MIC [7] was 12.5 µg/mL and the MIC (Salmonella typhosa, 1195) was 6.3 µg/mL. The MIC [8] was 50 µg/mL, the MIC (Shigella sonnei, 8449) was 25 µg/mL and the MIC [9] was 50 µg/mL. For the same molecule, the MIC [10] was 6.3 µg/mL, the MIC [11] was 6.3 µg/mL and the MIC [12] was 12.5 µg/mL. The MIC [13] was > 100 µg/mL, the MIC [14] was 25 µg/mL and the MIC (Micrococcus luteus, 2495) was 1.6 µg/mL. The MIC [15] was 0.8 µg/mL.

`C[C@H]1[C@H](NC(=O)C(=O)c2csc(N)n2)C(=O)N1S(=O)(=O)O` [Example 27, (3S-trans)-3-[[(2-Amino-4-thiazolyl)oxoacetyl]-amino]-4-methyl-2-oxo-1-azetidinesulfonic acid, potassium salt] was tested, and the MIC [1] was > 100 µg/mL, the MIC [2] was 3.1 µg/mL and the MIC [3] was 6.3 µg/mL. For the same molecule, the MIC (Escherichia coli, 10857) was 3.1 µg/mL, the MIC (Escherichia coli, 10896) was 3.1 µg/mL and the MIC (Escherichia coli, 10909) was 1.6 µg/mL. For the same molecule, the MIC (Escherichia coli, 8294) was 6.3 µg/mL, the MIC [4] was 6.3 µg/mL and the MIC [5] was 6.3 µg/mL. It also gave an MIC (Proteus mirabilis, 3855) of 3.1 µg/mL, an MIC (Proteus rettgeri, 8479) of 0.4 µg/mL and an MIC (Proteus vulgaris, 9416) of 6.3 µg/mL. The MIC [6] was > 100 µg/mL, the MIC [7] was 50 µg/mL and the MIC (Salmonella typhosa, 1195) was 3.1 µg/mL. For the same molecule, the MIC [8] was 3.1 µg/mL, the MIC (Shigella sonnei, 8449) was 3.1 µg/mL and the MIC [9] was > 100 µg/mL. The MIC [10] was > 100 µg/mL, the MIC [11] was > 100 µg/mL and the MIC [12] was > 100 µg/mL. For the same molecule, the MIC [13] was > 100 µg/mL, the MIC [14] was 3.1 µg/mL and the MIC (Micrococcus luteus, 2495) was 100 µg/mL. The MIC [15] was 12.5 µg/mL.

`COC1(NC(=O)Cc2ccccc2)C(=O)N(S(=O)(=O)O)C1C` (stereo not drawn) [Example 29, (3S-trans)-3-Methoxy-4-methyl-2-oxo-3-[(phenylacetyl)-amino]-1-azetidinesulfonic acid, potassium salt] was tested, and the MIC [1] was > 100 µg/mL, the MIC [2] was > 100 µg/mL and the MIC [3] was > 100 µg/mL. For the same molecule, the MIC (Escherichia coli, 10857) was > 100 µg/mL, the MIC (Escherichia coli, 10896) was 100 µg/mL and the MIC (Escherichia coli, 10909) was 100 µg/mL. The MIC (Escherichia coli, 8294) was > 100 µg/mL, the MIC [4] was > 100 µg/mL and the MIC [5] was 100 µg/mL. The MIC (Proteus mirabilis, 3855) was > 100 µg/mL, the MIC (Proteus rettgeri, 8479) was > 100 µg/mL and the MIC (Proteus vulgaris, 9416) was > 100 µg/mL. The MIC [6] was > 100 µg/mL, the MIC [7] was > 100 µg/mL and the MIC (Salmonella typhosa, 1195) was > 100 µg/mL. The MIC [8] was > 100 µg/mL, the MIC (Shigella sonnei, 8449) was > 100 µg/mL and the MIC [9] was > 100 µg/mL. For the same molecule, the MIC [10] was > 100 µg/mL, the MIC [11] was > 100 µg/mL and the MIC [12] was > 100 µg/mL. For the same molecule, the MIC [13] was > 100 µg/mL, the MIC [14] was > 100 µg/mL and the MIC (Micrococcus luteus, 2495) was > 100 µg/mL. The MIC [15] was > 100 µg/mL.

In the case of `C[C@H]1[C@H](NC(=O)/C(=N\OCC(=O)O)c2csc(N)n2)C(=O)N1S(=O)(=O)O` [Example 31, [3S-[3α(Z),4β]]-3-[[[(Carboxymethoxy)imino](2-amino-4-thiazolyl)acetyl]amino]-4-methyl-2-oxo-l-azetidinesulfonic acid, dipotassium salt], the MIC [1] is reported as 100 µg/mL, the MIC [2] is reported as 0.2 µg/mL and the MIC [3] is reported as 0.4 µg/mL. It also gave an MIC (Escherichia coli, 10857) of 0.2 µg/mL, an MIC (Escherichia coli, 10896) of 0.1 µg/mL and an MIC (Escherichia coli, 10909) of 0.1 µg/mL. For the same molecule, the MIC (Escherichia coli, 8294) was 0.4 µg/mL, the MIC [4] was 0.8 µg/mL and the MIC [5] was 0.2 µg/mL. For the same molecule, the MIC (Proteus mirabilis, 3855) was 0.2 µg/mL, the MIC (Proteus rettgeri, 8479) was 0.05 µg/mL and the MIC (Proteus vulgaris, 9416) was 0.2 µg/mL. It also gave an MIC [6] of 12.5 µg/mL, an MIC [7] of 0.8 µg/mL and an MIC (Salmonella typhosa, 1195) of 0.2 µg/mL. For the same molecule, the MIC [8] was 0.4 µg/mL, the MIC (Shigella sonnei, 8449) was 0.4 µg/mL and the MIC [9] was > 100 µg/mL. The MIC [10] was > 100 µg/mL, the MIC [11] was > 100 µg/mL and the MIC [12] was > 100 µg/mL. For the same molecule, the MIC [13] was > 100 µg/mL, the MIC [14] was 0.2 µg/mL and the MIC (Micrococcus luteus, 2495) was > 100 µg/mL. For the same molecule, the MIC [15] was 100 µg/mL.

`CC1C(NC(=O)C(NC(=O)N2CCN(N)C(=O)C2=O)c2ccccc2)C(=O)N1S(=O)(=O)O` (stereo not drawn) [Example 32, [3S(R*)]-3-[[[[(4-Amino-2,3-dioxo-1-piperazinyl)-carbonyl]amino]phenylacetyl]amino]-4-methyl-2-oxo-l-azetidinesulfonic acid, potassium salt] was tested, and the MIC [1] was 50 µg/mL, the MIC [2] was 3.1 µg/mL and the MIC [3] was 6.3 µg/mL. It also gave an MIC (Escherichia coli, 10857) of 0.4 µg/mL, an MIC (Escherichia coli, 10896) of 12.5 µg/mL and an MIC (Escherichia coli, 10909) of 0.8 µg/mL. For the same molecule, the MIC (Escherichia coli, 8294) was 3.1 µg/mL, the MIC [4] was 1.6 µg/mL and the MIC [5] was 0.2 µg/mL. For the same molecule, the MIC (Proteus mirabilis, 3855) was 0.4 µg/mL, the MIC (Proteus rettgeri, 8479) was 0.4 µg/mL and the MIC (Proteus vulgaris, 9416) was 0.2 µg/mL. For the same molecule, the MIC [6] was 50 µg/mL, the MIC [7] was 6.3 µg/mL and the MIC (Salmonella typhosa, 1195) was 0.2 µg/mL. The MIC [8] was 3.1 µg/mL, the MIC (Shigella sonnei, 8449) was 6.3 µg/mL and the MIC [9] was > 100 µg/mL. The MIC [10] was 25 µg/mL, the MIC [11] was 12.5 µg/mL and the MIC [12] was 25 µg/mL. The MIC [13] was > 100 µg/mL, the MIC [14] was 6.3 µg/mL and the MIC (Micrococcus luteus, 2495) was 6.3 µg/mL. The MIC [15] was 6.3 µg/mL.
